“And” between values parts separate entries of the source, which are not always exact repeats. Identical values can stand only once. Toxic doses and inconclusive results are not listed.
Test system: P388 leukemia ip, CD2F1 mice, survival T/C
Test: NCI In Vivo Anticancer Drug Screen. Data for tumor model P388 Leukemia (intraperitoneal) in CD2F1 (CDF1) mice
Conditions: endpoint: median survival time, higher = longer survival
Summary of the method: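 Mice carrying the transplanted tumor received test compound or vehicle. Survival was recorded in each group, and the value is the treated-group measurement divided by that of the vehicle-treated control group.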

[1] = dose: 60.0 mg/kg/injection, schedule: Q01DX005 (ip), vehicle: saline with Tween-80
[2] = dose: 120.0 mg/kg/injection, schedule: Q01DX005 (ip), vehicle: saline with Tween-80
[3] = dose: 240.0 mg/kg/injection, schedule: Q01DX005 (ip), vehicle: saline with Tween-80
[4] = dose: 50.0 mg/kg/injection, schedule: Q01DX005 (ip), vehicle: Klucel (hydroxypropylcellulose) (HPC)
[5] = dose: 100.0 mg/kg/injection, schedule: Q01DX005 (ip), vehicle: Klucel (hydroxypropylcellulose) (HPC)
[6] = dose: 200.0 mg/kg/injection, schedule: Q01DX005 (ip), vehicle: Klucel (hydroxypropylcellulose) (HPC)
[7] = dose: 100.0 mg/kg/injection, schedule: Q01DX009 (ip), vehicle: saline
[8] = dose: 200.0 mg/kg/injection, schedule: Q01DX009 (ip), vehicle: saline
[9] = dose: 50.0 mg/kg/injection, schedule: Q01DX009 (ip), vehicle: saline with Tween-80
[10] = dose: 60.0 mg/kg/injection, schedule: Q01DX005 (ip), vehicle: Klucel (hydroxypropylcellulose) (HPC)
[11] = dose: 120.0 mg/kg/injection, schedule: Q01DX005 (ip), vehicle: Klucel (hydroxypropylcellulose) (HPC)
[12] = dose: 100.0 mg/kg/injection, schedule: Q01DX009 (ip), vehicle: saline with Tween-80

CC(=O)OC1C(C)OC(OC(=O)C2CCC3C(C2)OC2(CC(OC(=O)/C=C/c4ccccc4)C(C)CO2)C32CO2)C(OC2OC(C)C(O)C(OC(C)=O)C2O)C1O (stereo not drawn)
T/C (dose: 0.62 mg/kg/injection, schedule: Q01DX009 (ip), vehicle: saline + alcohol): 97 % of control
T/C (dose: 0.75 mg/kg/injection, schedule: Q01DX005 (ip), vehicle: saline + alcohol): 97 % of control
T/C (dose: 1.25 mg/kg/injection, schedule: Q01DX009 (ip), vehicle: saline + alcohol): 105 % of control
T/C (dose: 1.5 mg/kg/injection, schedule: Q01DX005 (ip), vehicle: saline + alcohol): 106 % of control
T/C (dose: 1.67 mg/kg/injection, schedule: Q01DX009 (ip), vehicle: saline + alcohol): 113 % of control
T/C (dose: 1.75 mg/kg/injection, schedule: Q01DX009 (ip), vehicle: saline + alcohol): 104 % of control
T/C (dose: 2.5 mg/kg/injection, schedule: Q01DX009 (ip), vehicle: saline + alcohol): 105 % of control
T/C (dose: 3.0 mg/kg/injection, schedule: Q01DX005 (ip), vehicle: saline + alcohol): 114 % of control
T/C (dose: 3.5 mg/kg/injection, schedule: Q01DX009 (ip), vehicle: saline + alcohol): 108 % of control
T/C (dose: 5.0 mg/kg/injection, schedule: Q01DX009 (ip), vehicle: saline + alcohol): 106 % of control
T/C (dose: 6.0 mg/kg/injection, schedule: Q01DX005 (ip), vehicle: saline + alcohol): 115 % of control
T/C (dose: 6.68 mg/kg/injection, schedule: Q01DX009 (ip), vehicle: saline + alcohol): 152 % of control
T/C (dose: 7.0 mg/kg/injection, schedule: Q01DX009 (ip), vehicle: saline + alcohol): 110 % of control
T/C (dose: 13.35 mg/kg/injection, schedule: Q01DX009 (ip), vehicle: saline + alcohol): 111 % of control
T/C (dose: 14.0 mg/kg/injection, schedule: Q01DX009 (ip), vehicle: saline + alcohol): 118 % of control

Cc1nc2ccccc2[se]1
T/C [1]: 100 % of control
T/C [2]: 92 % of control
T/C [3]: 96 % of control

CCCCCC1(CCCCCCCC(=O)OCC)OCCO1
T/C (dose: 100.0 mg/kg/injection, schedule: Q04DX003 (ip), vehicle: Klucel (hydroxypropylcellulose) (HPC)): 97 % of control
T/C (dose: 200.0 mg/kg/injection, schedule: Q04DX003 (ip), vehicle: Klucel (hydroxypropylcellulose) (HPC)): 103 % of control
T/C (dose: 400.0 mg/kg/injection, schedule: Q04DX003 (ip), vehicle: Klucel (hydroxypropylcellulose) (HPC)): 97 % of control

COC1N(Cc2ccccc2)C=C2C(=O)NC(=O)C3NC(c4ccccc4)C1(C)C23C (stereo not drawn)
T/C [4]: 90 % of control
T/C [5]: 91 % of control
T/C [6]: 88 % of control and 92 % of control

O=NC1C2CCC(C2)C1N=O.[Co].[c-]1[c-][c-][cH-][c-]1 (stereo not drawn)
T/C (dose: 12.5 mg/kg/injection, schedule: Q01DX005 (ip), vehicle: saline with Tween-80): 96 % of control
T/C (dose: 25.0 mg/kg/injection, schedule: Q01DX005 (ip), vehicle: saline with Tween-80): 98 % of control
T/C (dose: 50.0 mg/kg/injection, schedule: Q01DX005 (ip), vehicle: saline with Tween-80): 98 % of control and 92 % of control

N#CN=[N+]([O-])c1cccc(Br)c1
T/C (dose: 6.25 mg/kg/injection, schedule: Q04DX003 (ip), vehicle: Klucel (hydroxypropylcellulose) (HPC)): 102 % of control
T/C (dose: 12.5 mg/kg/injection, schedule: Q04DX003 (ip), vehicle: Klucel (hydroxypropylcellulose) (HPC)): 101 % of control
T/C (dose: 25.0 mg/kg/injection, schedule: Q04DX003 (ip), vehicle: Klucel (hydroxypropylcellulose) (HPC)): 105 % of control
T/C (dose: 50.0 mg/kg/injection, schedule: Q04DX003 (ip), vehicle: Klucel (hydroxypropylcellulose) (HPC)): 100 % of control

CC(=O)NCCn1ccnc1
T/C (dose: 50.0 mg/kg/injection, schedule: Q01DX009 (ip), vehicle: saline): 95 % of control
T/C [7]: 102 % of control
T/C [8]: 102 % of control

Brc1nn[nH]n1
T/C (dose: 50.0 mg/kg/injection, schedule: Q01DX009 (ip), vehicle: Klucel (hydroxypropylcellulose) (HPC)): 101 % of control
T/C (dose: 100.0 mg/kg/injection, schedule: Q01DX009 (ip), vehicle: Klucel (hydroxypropylcellulose) (HPC)): 90 % of control

Cn1c(=O)oc2cc([N+](=O)[O-])c(Cl)cc21
T/C [4]: 95 % of control
T/C [5]: 92 % of control

O=C(CBr)c1cccc([N+](=O)[O-])c1
T/C (dose: 6.25 mg/kg/injection, schedule: Q01DX009 (ip), vehicle: saline with Tween-80): 101 % of control
T/C (dose: 12.5 mg/kg/injection, schedule: Q01DX009 (ip), vehicle: saline with Tween-80): 100 % of control
T/C (dose: 25.0 mg/kg/injection, schedule: Q01DX009 (ip), vehicle: saline with Tween-80): 109 % of control
T/C [9]: 100 % of control

CC1(C)C=C(O)C(=O)C(O)=C1
T/C (dose: 15.0 mg/kg/injection, schedule: Q01DX005 (ip), vehicle: Klucel (hydroxypropylcellulose) (HPC)): 102 % of control
T/C (dose: 30.0 mg/kg/injection, schedule: Q01DX005 (ip), vehicle: Klucel (hydroxypropylcellulose) (HPC)): 102 % of control
T/C [4]: 116 % of control
T/C [10]: 103 % of control

O=c1[nH]cnc2nc(SCc3ccc([N+](=O)[O-])cc3)[nH]c12
T/C [10]: 105 % of control
T/C [11]: 102 % of control
T/C (dose: 240.0 mg/kg/injection, schedule: Q01DX005 (ip), vehicle: Klucel (hydroxypropylcellulose) (HPC)): 108 % of control

COc1ccc(-c2nn(-c3ccccc3)c(-c3ccc(OC)cc3)c2N=Nc2ccc(S(=O)(=O)Nc3nnc(C)s3)cc2)cc1
T/C (dose: 100.0 mg/kg/injection, schedule: Q01DX001 (ip), vehicle: saline with Tween-80): 100 % of control
T/C (dose: 200.0 mg/kg/injection, schedule: Q01DX001 (ip), vehicle: saline with Tween-80): 89 % of control
T/C (dose: 400.0 mg/kg/injection, schedule: Q01DX001 (ip), vehicle: saline with Tween-80): 93 % of control

CC(C)(C)N=C(CCNC1CCCCC1)Nc1c(Cl)cccc1Cl
T/C [9]: 100 % of control
T/C [12]: 106 % of control

Cn1c2ccccc2c2nnc(N/N=C/c3cccnc3)nc21
T/C (dose: 100.0 mg/kg/injection, schedule: Q04DX002 (ip), vehicle: saline with Tween-80): 91 % of control
T/C (dose: 200.0 mg/kg/injection, schedule: Q04DX002 (ip), vehicle: saline with Tween-80): 86 % of control and 90 % of control
T/C (dose: 400.0 mg/kg/injection, schedule: Q04DX002 (ip), vehicle: saline with Tween-80): 99 % of control and 90 % of control and 95 % of control

Cc1ccc(S(=O)(=O)N/N=C(\Cc2ccccc2)c2ccc(Br)cc2)cc1
T/C [9]: 99 % of control
T/C [12]: 99 % of control
T/C [7]: 98 % of control
T/C (dose: 200.0 mg/kg/injection, schedule: Q01DX009 (ip), vehicle: saline with Tween-80): 90 % of control
T/C [8]: 98 % of control

CCC(C)/C(=C\C#N)NCCCN/C(=C/C#N)C(C)CC (stereo not drawn)
T/C (dose: 3.75 mg/kg/injection, schedule: Q01DX005 (ip), vehicle: Klucel + Tween-80): 100 % of control
T/C (dose: 7.5 mg/kg/injection, schedule: Q01DX005 (ip), vehicle: Klucel + Tween-80): 109 % of control
T/C (dose: 15.0 mg/kg/injection, schedule: Q01DX005 (ip), vehicle: Klucel + Tween-80): 92 % of control and 98 % of control
T/C (dose: 60.0 mg/kg/injection, schedule: Q01DX005 (ip), vehicle: Klucel + Tween-80): 86 % of control
T/C [11]: 88 % of control

Cc1ccc2ccc3ccc(CBr)nc3c2n1
T/C (dose: 3.12 micromoles/kg, schedule: Q01DX005 (ip), vehicle: other): 110 % of control
T/C (dose: 6.25 micromoles/kg, schedule: Q01DX005 (ip), vehicle: other): 99 % of control
T/C (dose: 12.0 micromoles/kg, schedule: Q01DX005 (ip), vehicle: other): 111 % of control

C[Si](C)(C)Cn1cccc1
T/C [1]: 103 % of control
T/C [2]: 102 % of control
T/C [3]: 94 % of control

O=C(c1nc2ccccc2[nH]1)N1CCN(c2ccccc2)CC1
T/C [4]: 104 % of control
T/C [5]: 107 % of control and 95 % of control
T/C [6]: 101 % of control and 110 % of control

COC(=O)c1cc(-c2ccc(N)cc2)c2c(=O)n(-c3ccccc3)[nH]c2n1
T/C [1]: 100 % of control
T/C [2]: 91 % of control
T/C [3]: 87 % of control

CCN1C(=O)CSC1=S
T/C (dose: 6.25 mg/kg/injection, schedule: Q04DX002 (ip), vehicle: Klucel (hydroxypropylcellulose) (HPC)): 112 % of control
T/C (dose: 12.5 mg/kg/injection, schedule: Q04DX002 (ip), vehicle: Klucel (hydroxypropylcellulose) (HPC)): 110 % of control
T/C (dose: 25.0 mg/kg/injection, schedule: Q04DX002 (ip), vehicle: Klucel (hydroxypropylcellulose) (HPC)): 105 % of control
T/C (dose: 50.0 mg/kg/injection, schedule: Q04DX002 (ip), vehicle: Klucel (hydroxypropylcellulose) (HPC)): 109 % of control
